Measurements published in patent publication US7202269B2, “GlyT2 modulators” (Janssen Pharmaceutica N.V., priority 2003, dated 2007).

Target: T1, human glycine transporter-2 (GlyT2) (Homo sapiens, UniProt Q9Y345)
T1 construct: The entire coding region of the human GlyT2 cDNA was cloned into the mammalian expression vector pClNeo; expressed in transfected cells; host or cells: Cos-7 cells (African green monkey kidney, ATCC), stably transfected, G418-selected; vector pClNeo
T1 sequence (Q9Y345 1-797): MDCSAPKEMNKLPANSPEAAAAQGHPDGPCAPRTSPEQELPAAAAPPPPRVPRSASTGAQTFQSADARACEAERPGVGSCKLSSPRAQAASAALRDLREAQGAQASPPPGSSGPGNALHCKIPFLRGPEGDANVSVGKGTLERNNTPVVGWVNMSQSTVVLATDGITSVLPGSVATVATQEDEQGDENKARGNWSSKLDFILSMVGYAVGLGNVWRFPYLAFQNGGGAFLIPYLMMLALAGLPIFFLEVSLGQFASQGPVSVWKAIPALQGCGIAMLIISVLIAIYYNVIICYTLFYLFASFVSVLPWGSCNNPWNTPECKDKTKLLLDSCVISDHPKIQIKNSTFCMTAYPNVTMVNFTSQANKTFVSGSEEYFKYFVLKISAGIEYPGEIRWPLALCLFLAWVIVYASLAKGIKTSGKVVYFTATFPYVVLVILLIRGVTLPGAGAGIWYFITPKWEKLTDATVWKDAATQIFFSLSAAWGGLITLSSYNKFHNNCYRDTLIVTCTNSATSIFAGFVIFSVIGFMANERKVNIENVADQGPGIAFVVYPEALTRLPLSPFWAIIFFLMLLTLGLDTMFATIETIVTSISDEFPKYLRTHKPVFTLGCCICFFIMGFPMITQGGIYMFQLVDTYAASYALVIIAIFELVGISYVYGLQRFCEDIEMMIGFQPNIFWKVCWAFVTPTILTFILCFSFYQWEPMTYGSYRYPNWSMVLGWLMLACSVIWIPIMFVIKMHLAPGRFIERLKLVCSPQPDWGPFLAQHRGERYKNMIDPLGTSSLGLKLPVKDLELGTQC
Assay: Inhibition of [14C]-glycine uptake in COS-7 cells transfected with human GlyT2
Type: cell-based
Details: 2 h at 37° C., Cos-7 cells stably transfected with human GlyT2
Experimental: GlyT2 antagonist activity of representative compounds of the invention was determined in accordance with the assay described in the Examples and by measuring the ability of compounds to inhibit the uptake of [^14C]-glycine in COS-7 cells transfected with the human glycine transporter-2 (GlyT2). The GlyT2 antagonist activities of these representative compounds are set forth hereinafter in Table 1.
Cos-7 cells (African green monkey, kidney) from American Type Culture Collection were grown in DMEM supplemented with 10% fetal bovine serum. The entire coding region of the human GlyT2 cDNA was cloned into the mammalian expression vector pClNeo, and then stably transfected into Cos-7 cells. Transfection was performed essentially as described by T. W. Lovenberg et al. (Mol. Pharmacol. 1999, 55:1101–1107): Briefly, cells were grown to 70–80% confluence, removed from the plate with trypsin, and pelleted in a clinical centrifuge. The pellet was resuspended in 400 μL complete medium and transferred to an electroporation cuvette with a 0.4 cm gap between the electrodes (Bio-Rad, 165–2088). One microgram of supercoiled GlyT2 cDNA was added to the cells, and the suspension was mixed. The voltage for the electroporation was set at 0.25 kV, and the capacitance was set at 960 μF. After electroporation, the cuvette contents were diluted to 10 mL with complete medium, and 0.5 mL, 1.0 mL, 2.0 mL and remainder (˜6.5 mL) portions were plated onto four 10-cm dishes. The cells were incubated 24 h before adding 600 μg/mL G418. Colonies that survived selection were isolated and tested for GlyT2 expression.
The day before the assay, the GlyT2 expressing cells were plated into 96-well scintillating microplates (Amersham, RPNQ 0160) at a density of approximately 20,000 cells per well. Cells were grown overnight at 37° C. in 5% CO2 and then washed once with 37° C. HEPES buffered saline (HBS: 150 mM NaCl, 20 mM HEPES, 1 mM CaCl2, 10 mM glucose, 5 mM KCl, 1 mM MgCl2; pH 7.4). Eighty microliters of 37° C. HBS was subsequently added to each well. Test solutions of GlyT2 inhibitors were prepared in HBS from DMSO stock solutions, and 5 μL of test solution was added to each test well. Total transport and non-specific background were determined by adding 5 μL HBS or 5 μL 2 M glycine, respectively, to the appropriate control wells. Plates were then left at rt for 5 min before the addition of 20 μL of 100 μM ^14C-glycine (NEN, NEC 048H) to each well for a final concentration of 20 μM. Plates were incubated for 2 h at 37° C. with 5% CO2. After 2 h the reaction mixtures were removed by aspiration, and the plates were washed once with ice-cold HBS. Plates were sealed with TopSeal (Packard, 6005185) and counted on a Packard TopCount® scintillation counter.

`N#C/N=C(\Nc1ccc(-c2ccccc2)cc1)N[C@@H](Cc1ccccc1)C(=O)NCCCN1CCCC1` [Example 1, (S)-2-(N′-Biphenyl-4-yl-N″-cyano-guanidino)-3-phenyl-N-(3-pyrrolidin-1-yl-propyl)-propionamide] was tested, and the IC50 (Table 1, 20 μM) was 11 nM.

`O=C(Nc1ccc(-c2ccccc2)cc1)N[C@H](CCCNCCN1CCCC1)Cc1ccccc1` [Example 2, 1-[(R)-1-Benzyl-4-(2-pyrrolidin-1-yl-ethylamino)-butyl]-3-biphenyl-4-yl-urea] gave an IC50 (Table 2, 20 μM) of 18 nM.

Work on `CC(C)N(CCNC(=O)[C@H](Cc1ccccc1)NC(=O)Nc1ccc(Oc2ccc(Cl)cc2)cc1)C(C)C` [Example 3, (S)-2-{3-[4-(4-Chloro-phenoxy)-phenyl]-ureido}-N-(2-diisopropylamino-ethyl)-3-phenyl-propionamide] yielded an IC50 (Table 2, 20 μM) of 18 nM.

With `Cc1ccc([C@@H](CC(=O)NCCN2CCCC2)NC(=O)Nc2ccc(-c3ccccc3)cc2)cc1` [Example 6, (R)-3-(3-Biphenyl-4-yl-ureido)-N-(2-pyrrolidin-1-yl-ethyl)-3-p-tolyl-propionamide] the IC50 (Table 2, 20 μM) was 27 nM.

`N#C/N=C(\Nc1ccc(-c2ccccc2)cc1)N[C@H](CC(=O)NCCN1CCCC1)c1ccccc1` [Example 8, (R)-3-(N′-Biphenyl-4-yl-N″-cyano-guanidino)-3-phenyl-N-(2-pyrrolidin-1-yl-ethyl)-propionamide] showed an IC50 (Table 1, 20 μM) of 31 nM.

Compound `O=C(NCCN1CCCC1)[C@H](Cc1ccccc1)NC(=S)Nc1ccc(Oc2ccc(Cl)cc2)cc1` [Example 9, (S)-2-{3-[4-(4-Chloro-phenoxy)-phenyl]-thioureido}-3-phenyl-N-(2-pyrrolidin-1-yl-ethyl)-propionamide] has an IC50 (Table 3, 20 μM) of 32 nM.

Compound `O=C(/C=C/[C@H](Cc1ccccc1)NC(=O)Nc1ccc(Oc2ccc(F)cc2)cc1)NCCN1CCCC1` [Example 11, (E)-(S)-4-{3-[4-(4-Fluoro-phenoxy)-phenyl]-ureido}-5-phenyl-pent-2-enoic Acid (2-pyrrolidin-1-yl-ethyl)-amide] has an IC50 (Table 2, 20 μM) of 39 nM.

`CCN(CC)CCNC(=O)/C=C/[C@H](Cc1ccccc1)NC(=O)Nc1ccc(-c2ccccc2)cc1` [Example 19, (E)-(S)-4-(3-Biphenyl-4-yl-ureido)-5-phenyl-pent-2-enoic Acid (2-diethylamino-ethyl)-amide] gave an IC50 (Table 2, 20 μM) of 48 nM.

Compound `CC(C)NCCNC(=O)/C=C/[C@H](Cc1ccccc1)NC(=O)Nc1ccc(-c2ccccc2)cc1` [Example 21, (E)-(S)-4-(3-Biphenyl-4-yl-ureido)-5-phenyl-pent-2-enoic Acid (2-isopropylamino-ethyl)-amide] has an IC50 (Table 2, 20 μM) of 52 nM.

In the case of `CC(C)NCCNC(=O)CC[C@H](Cc1ccccc1)NC(=O)Nc1ccc(-c2ccccc2)cc1` [Example 26, (R)-4-(3-Biphenyl-4-yl-ureido)-5-phenyl-pentanoic Acid (2-isopropylamino-ethyl)-amide], the IC50 (Table 2, 20 μM) is reported as 57 nM.

In the case of `O=C(CNc1ccc(Oc2ccc(Cl)cc2)cc1)N[C@@H](Cc1ccccc1)C(=O)NCCN1CCCC1` [Example 27, (S)-2-{2-[4-(4-Chloro-phenoxy)-phenylamino]-acetylamino}-3-phenyl-N-(2-pyrrolidin-1-yl-ethyl)-propionamide], the IC50 (Table 2, 20 μM) is reported as 58 nM.

`O=C(C[C@H](Cc1ccccc1)NC(=O)CNc1ccc(Oc2ccc(Cl)cc2)cc1)NCCN1CCCC1` [Example 28, (S)-3-{2-[4-(4-Chloro-phenoxy)-phenylamino]-acetylamino}-4-phenyl-N-(2-pyrrolidin-1-yl-ethyl)-butyramide] showed an IC50 (Table 2, 20 μM) of 95 nM.

With `O=C(CC[C@H](Cc1ccccc1)NC(=S)Nc1ccc(-c2ccccc2)cc1)NCCN1CCCC1` [Example 31, (R)-4-(3-Biphenyl-4-yl-thioureido)-5-phenyl-pentanoic Acid (2-pyrrolidin-1-yl-ethyl)-amide] the IC50 (Table 3, 20 μM) was 89 nM.

`N#C/N=C(\Nc1ccc(-c2ccccc2)cc1)N[C@H](CCC(=O)NCCN1CCCC1)Cc1ccccc1` [Example 42, (R)-4-(N′-Biphenyl-4-yl-N″-cyano-guanidino)-5-phenyl-pentanoic Acid (2-pyrrolidin-1-yl-ethyl)-amide] was tested, and the IC50 (Table 1, 20 μM) was 93 nM.

Work on `N#C/N=C(\Nc1ccc(-c2ccccc2)cc1)N[C@H](CC(=O)NCCN1CCCC1)Cc1ccccc1` [Example 53, (S)-3-(N′-Biphenyl-4-yl-N″-cyano-guanidino)-4-phenyl-N-(2-pyrrolidin-1-yl-ethyl)-butyramide] yielded an IC50 (Table 1, 20 μM) of 103 nM.

With `CN(C)CCN(C)C(=O)C(Cc1ccccc1)NC(=O)Nc1ccc(-c2ccccc2)cc1` (stereo not drawn) [Example 61, 2-(3-Biphenyl-4-yl-ureido)-N-(2-dimethylamino-ethyl)-N-methyl-3-phenyl-propionamide] the IC50 (Table 2, 20 μM) was 3500 nM.

With `CC(C)N(CCNC(=O)[C@H](Cc1ccccc1)NC(=O)Nc1ccc(-c2cccs2)cc1)C(C)C` [Example 65, (S)-N-(2-Diisopropylamino-ethyl)-3-phenyl-2-[3-(4-thiophen-2-yl-phenyl)-ureido]-propionamide] the IC50 (Table 2, 20 μM) was 405 nM.

Work on `O=C(Nc1ccc(Oc2ccccc2)cc1)N[C@@H](Cc1cscn1)C(=O)NCCN1CCCC1` [Example 74, (S)-2-[3-(4-Phenoxy-phenyl)-ureido]-N-(2-pyrrolidin-1-yl-ethyl)-3-thiazol-4-yl-propionamide] yielded an IC50 (Table 2, 20 μM) of 1060 nM.

In the case of `O=C(Nc1ccc(-c2ccccc2)cc1)NC1(C(=O)NCCN2CCCC2)Cc2ccccc2C1` [Example 84, 2-(3-Biphenyl-4-yl-ureido)-indan-2-carboxylic Acid (2-pyrrolidin-1-yl-ethyl)-amide], the IC50 (Table 2, 20 μM) is reported as 10000 nM.

`O=C(Nc1ccc(S(=O)(=O)c2ccc(Cl)cc2)cc1)N[C@@H](Cc1ccccc1)C(=O)NCCN1CCCC1` [Example 85, (S)-2-{3-[4-(4-Chloro-benzenesulfonyl)-phenyl]-ureido}-3-phenyl-N-(2-pyrrolidin-1-yl-ethyl)-propionamide] gave an IC50 (Table 2, 20 μM) of 269 nM.

`CCCNCCNC(=O)CC[C@H](Cc1ccccc1)NC(=O)Nc1ccc(-c2ccccc2)cc1` [Example 87, (R)-4-(3-Biphenyl-4-yl-ureido)-5-phenyl-pentanoic Acid (2-propylamino-ethyl)-amide] was tested, and the IC50 (Table 2, 20 μM) was 76 nM.

`NCCNC(=O)[C@H](Cc1ccccc1)NC(=O)Nc1ccc(Oc2ccccc2)cc1` [Example 98, (S)-N-(2-Amino-ethyl)-2-[3-(4-phenoxy-phenyl)-ureido]-3-phenyl-propionamide] showed an IC50 (Table 2, 20 μM) of 398 nM.

With `O=C(/C=C/[C@H](Cc1ccccc1)NC(=O)Nc1ccc(-c2ccccc2)cc1)NCCN1CCCC1` [Example 101, (E)-(S)-4-(3-Biphenyl-4-yl-ureido)-5-phenyl-pent-2-enoic Acid (2-pyrrolidin-1-yl-ethyl)-amide] the IC50 (Table 2, 20 μM) was 112 nM.

Work on `NCCNC(=O)CC[C@H](Cc1ccccc1)NC(=O)Nc1ccc(Oc2ccccc2)cc1` [Example 111, (R)-4-[3-(4-Phenoxy-phenyl)-ureido]-5-phenyl-pentanoic Acid (2-amino-ethyl)-amide] yielded an IC50 (Table 2, 20 μM) of 500 nM.
